# Target: T1, human Farnesoid X Receptor (FXR) ligand binding domain (GST-FXR LBD) (Homo sapiens, UniProt Q96RI1)
# T1 construct: purchased Invitrogen
# T1 sequence (Q96RI1 193-472 isoform Q96RI1-2): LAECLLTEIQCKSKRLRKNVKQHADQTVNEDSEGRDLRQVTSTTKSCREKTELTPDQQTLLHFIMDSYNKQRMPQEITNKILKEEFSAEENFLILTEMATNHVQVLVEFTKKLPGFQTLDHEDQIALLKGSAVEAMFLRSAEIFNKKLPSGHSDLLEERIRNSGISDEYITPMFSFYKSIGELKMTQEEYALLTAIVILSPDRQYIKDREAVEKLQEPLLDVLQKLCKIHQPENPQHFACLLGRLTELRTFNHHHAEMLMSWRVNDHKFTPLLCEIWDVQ
# Experiment: Human GST-FXR LBD co-activator interaction assay (FXR HTRF assay)
# Assay type: biochemical
# Settings: ligand-dependent interaction of GST-FXR LBD with biotin-labeled SRC-1 peptide, response relative to GW4064, read-out: FXR coactivator interaction assay (HTRF)
# Text: Human GST-FXR LBD Co-Activator Interaction Assay
# The FXR HTRF assay is a biochemical assay measuring the interaction between FXR and a coactivator protein (SRC1). The ligand-induced interaction with a coactivator protein is a critical step in transcriptional activation by FXR. Thus, this is an assay designed to measure FXR agonist activity of the test compounds.
# Recombinant human Farnesoid X Receptor (FXR) ligand binding domain (amino acids 193-472) fused to glutathione S-transferase (GST) purified protein (GST-FXR LBD) was purchased (Invitrogen). The ligand-dependent interaction between GST-FXR LBD and a peptide derived from Steroid Receptor Coactivator-1 (SRC-1) was monitored by Fluorescence Resonance Energy Transfer (FRET). […] Test compounds (in DMSO solution) and detection reagents (anti-GST-Cryptate labeled antibody and Streptavidin-XL665 conjugate; CisBio) were added in assay buffer containing 50 mM KF. Plates are incubated at room temperature in the dark for 2.5 hrs before reading on an Envision (PerkinElmer) at 665 nm and 590 nm. The HTRF assay results were calculated from the 665 nm/590 nm ratio (ratio=(A665 nm/A590 nm)×10^4) and expressed in Delta F %=(Ratiosample−Rationegative)/Rationegative×100.
# A negative control (without Streptavidin-XL665) was run with each assay and represented the background fluorescence. A reference FXR agonist, (E)-3-(2-chloro-4-((3-(2,6-dichlorophenyl)-5-isopropylisoxazol-4-yl)methoxy)styryl)benzoic acid (Compound GW4064), was included in each experiment as positive control. The efficacy of each test compound was compared to that of GW4064. At each concentration, the relative activity of the test compound was expressed as Response %=(Rsample−RDMSO)/(Rpositive−RDMSO), where Rsample is the HTRF response (expressed in Delta F %) for the test compound, Rpositive is the maximal response for GW4064 at saturating concentrations, and RDMSO is the response for DMSO control. The EC50 values were calculated using GraphPad Prism (GraphPad Software) using non-linear regression curve fit (log(agonist) vs. response—variable slope (four parameters)).
row,EC50,Compound
1,10 nM,"CC(C)C(=O)NCCN(Cc1ccccc1F)C(=O)c1nn(C)c2c1COc1ccc(Cl)cc1-2 [Compound 66, N-[2-(1-{8-chloro-1-methyl-1H,4H-chromeno[4,3-c]pyrazol-3-yl}-N-[(2-fluorophenyl)methyl]formamido)ethyl]-2-methylpropanamide]"
2,22 nM,"CC(C)C(=O)NCCN(Cc1ccccc1)C(=O)c1nn(C)c2c1COc1ccc(Br)cc1-2 [Compound 68, N-[2-(N-benzyl-1-{8-bromo-1-methyl-1H,4H-chromeno[4,3-c]pyrazol-3-yl}formamido)ethyl]-2-methylpropanamide]"
3,50 nM,"CC(C)C(=O)NCCN(Cc1ccccc1)C(=O)c1nn(C)c2c1COc1ccc(Cl)cc1-2 [Compound 73, N-[2-(N-benzyl-1-{8-chloro-1-methyl-1H,4H-chromeno[4,3-c]pyrazol-3-yl}formamido)ethyl]-2-methylpropanamide]"
4,96 nM,"Cn1nc(C(=O)N(CC(=O)NCC2CC2)CC2CCCCC2)c2c1-c1cc(Cl)ccc1OC2 [Compound 74, 2-(1-{8-chloro-1-methyl-1H,4H-chromeno[4,3-c]pyrazol-3-yl}-N-(cyclohexylmethyl)formamido)-N-(cyclopropylmethyl)acetamide]"
5,87 nM,"Cn1nc(C(=O)N(CC(=O)NCC2CC2)CC2CCCC2)c2c1-c1cc(Cl)ccc1OC2 [Compound 75, 2-(1-{8-chloro-1-methyl-1H,4H-chromeno[4,3-c]pyrazol-3-yl}-N-(cyclopentylmethyl)formamido)-N-(cyclopropylmethyl)acetamide]"
6,259 nM,"Cn1nc(C(=O)N(CCNc2nccs2)Cc2cccc(F)c2)c2c1-c1cc(Cl)ccc1OC2 [Compound 76, 8-chloro-N-[(3-fluorophenyl)methyl]-1-methyl-N-{2-[(1,3-thiazol-2-yl)amino]ethyl}-1H,4H-chromeno[4,3-c]pyrazole-3-carboxamide]"
7,2230 nM,"Cn1nc(C(=O)N(CC(=O)NCC2CC2)Cc2ccccc2F)c2c1-c1cc(Br)ccc1OC2(C)C [Compound 78, 2-(1-{8-bromo-1,4,4-trimethyl-1H,4H-chromeno[4,3-c]pyrazol-3-yl}-N-[(2-fluorophenyl)methyl]formamido)-N-(cyclopropylmethyl)acetamide]"
8,61 nM,"C[C@@H](C(=O)NCC1CC1)N(Cc1ccccc1F)C(=O)c1nn(C)c2c1COc1ccc(Cl)cc1-2 [Compound 80, (2S)-2-(1-{8-chloro-1-methyl-1H,4H-chromeno[4,3-c]pyrazol-3-yl}-N-[(2-fluorophenyl)methyl]formamido)-N-(cyclopropylmethyl)propanamide]"
9,48 nM,"Cn1nc(C(=O)N(CC(=O)NCC2CC2)Cc2nccs2)c2c1-c1cc(Cl)ccc1OC2 [Compound 81, 2-(1-{8-chloro-1-methyl-1H,4H-chromeno[4,3-c]pyrazol-3-yl}-N-(1,3-thiazol-2-ylmethyl)formamido)-N-(cyclopropylmethyl)acetamide]"
10,178 nM,"Cn1nc(C(=O)N(CC(=O)NCC2CCOCC2)Cc2ccccc2F)c2c1-c1cc(Cl)ccc1OC2 [Compound 82, 2-(1-{8-chloro-1-methyl-1H,4H-chromeno[4,3-c]pyrazol-3-yl}-N-[(2-fluorophenyl)methyl]formamido)-N-(oxan-4-ylmethyl)acetamide]"

# More lines, now with the values behind:
row,Compound,EC50
1,"Cn1nc(C(=O)N(Cc2ccccc2)Cc2ccc(C(N)=O)cc2)c2c1-c1cc(Cl)ccc1OC2 [Compound 53, N-benzyl-N-(4-carbamoylbenzyl)-8-chloro-1-methyl-1,4-dihydrochromeno[4,3-c]pyrazole-3-carboxamide]",442 nM
2,"CNS(=O)(=O)c1ccc(CN(Cc2ccccc2)C(=O)c2nn(C)c3c2COc2ccc(Cl)cc2-3)cc1 [Compound 54, N-benzyl-8-chloro-1-methyl-N-{[4-(methylsulfamoyl)phenyl]methyl}-1H,4H-chromeno[4,3-c]pyrazole-3-carboxamide]",266 nM
3,"Cn1nc(C(=O)N(Cc2ccccc2)Cc2ccc(S(C)(=O)=O)cc2)c2c1-c1cc(Cl)ccc1OC2 [Compound 56, N-benzyl-8-chloro-N-[(4-methanesulfonylphenyl)methyl]-1-methyl-1H,4H-chromeno[4,3-c]pyrazole-3-carboxamide]",605 nM
4,"Cn1nc(C(=O)N(Cc2ccccc2)Cc2cccc(F)c2)c2c1-c1cc(Cl)ccc1OC2 [Compound 57, N-benzyl-8-chloro-N-[(3-fluorophenyl)methyl]-1-methyl-1H,4H-chromeno[4,3-c]pyrazole-3-carboxamide]",509 nM
5,"Cn1nc(C(=O)N(CCNC(=O)NCC2CC2)Cc2ccccc2F)c2c1-c1cc(Cl)ccc1OC2 [Compound 60, 8-chloro-N-(2-(3-(cyclopropylmethyl)ureido)ethyl)-N-(2-fluorobenzyl)-1-methyl-1,4-dihydrochromeno[4,3-c]pyrazole-3-carboxamide]",1810 nM
6,"CC(C)NC(=O)NCCN(Cc1ccccc1F)C(=O)c1nn(C)c2c1COc1ccc(Cl)cc1-2 [Compound 61, 8-chloro-N-[(2-fluorophenyl)methyl]-1-methyl-N-(2-{[(propan-2-yl)carbamoyl]amino}ethyl)-1H,4H-chromeno[4,3-c]pyrazole-3-carboxamide]",1080 nM
7,"CC(C)C(=O)NCCN(Cc1cccc(F)c1)C(=O)c1nn(C)c2c1COc1ccc(Br)cc1-2 [Compound 62, 8-bromo-N-(3-fluorobenzyl)-N-(2-isobutyramidoethyl)-1-methyl-1,4-dihydrochromeno[4,3-c]pyrazole-3-carboxamide]",18 nM
8,"CC(C)S(=O)(=O)NCCN(Cc1ccccc1F)C(=O)c1nn(C)c2c1COc1ccc(Cl)cc1-2 [Compound 63, 8-chloro-N-[(2-fluorophenyl)methyl]-1-methyl-N-[2-(propane-2-sulfonamido)ethyl]-1H,4H-chromeno[4,3-c]pyrazole-3-carboxamide]",644 nM
9,"CC(C)S(=O)(=O)NCCN(Cc1ccccc1)C(=O)c1nn(C)c2c1COc1ccc(Br)cc1-2 [Compound 64, N-benzyl-8-bromo-1-methyl-N-[2-(propane-2-sulfonamido)ethyl]-1H,4H-chromeno[4,3-c]pyrazole-3-carboxamide]",695 nM
10,"Cn1nc(C(=O)N(CC(=O)NCC2CC2)Cc2ccccc2F)c2c1-c1cc(F)ccc1OC2 [Compound 65, N-(2-((cyclopropylmethyl)amino)-2-oxoethyl)-8-fluoro-N-(2-fluorobenzyl)-1-methyl-1,4-dihydrochromeno[4,3-c]pyrazole-3-carboxamide]",12 nM
